Data published in EPA's CvTdb concentration-time database.

What was measured:
Rat [1] = assay: concentration in liver after dosing; details: 24 h; dosed: Perfluorooctane Sulfonate; 2 mg/kg; oral; Female; Harlan Sprague Dawley
Rat [2] = assay: concentration in brain after dosing; details: 24 h; dosed: Perfluorooctane Sulfonate; 2 mg/kg; oral; Female; Harlan Sprague Dawley
Rat [3] = assay: concentration in liver after dosing; details: 864 h; dosed: Perfluorooctane Sulfonate; 2 mg/kg; oral; Female; Harlan Sprague Dawley
Rat [4] = assay: concentration in liver after dosing; details: 1848 h; dosed: Perfluorooctane Sulfonate; 2 mg/kg; oral; Female; Harlan Sprague Dawley
Rat [5] = assay: concentration in liver after dosing; details: 1848 h; dosed: Perfluorooctane Sulfonate; 20 mg/kg; oral; Male; Harlan Sprague Dawley
Rat [6] = assay: concentration in kidney after dosing; details: 24 h; dosed: Perfluorooctane Sulfonate; 20 mg/kg; oral; Male; Harlan Sprague Dawley
Rat [7] = assay: concentration in plasma after dosing; details: dosed: Perfluorooctane Sulfonate, 2 mg/kg, oral, Female, Harlan Sprague Dawley
Rat [8] = assay: concentration in plasma after dosing; details: dosed: Perfluorooctane Sulfonate, 2 mg/kg, iv, Female, Harlan Sprague-Dawley
Rat [9] = assay: concentration in plasma after dosing; details: dosed: Perfluorooctane Sulfonate, 2 mg/kg, iv, Male, F344
Rat [10] = assay: concentration in plasma after dosing; details: dosed: Perfluorooctane Sulfonate, 2 mg/kg, iv, Female, F344
Rat [11] = assay: concentration in plasma after dosing; details: dosed: Perfluorooctane Sulfonate, 2 mg/kg, iv, Male, F344; remark: listed apart in the source
Rat [12] = assay: concentration in plasma after dosing; details: dosed: Perfluorooctane Sulfonate, 2 mg/kg, iv, Female, Harlan Sprague-Dawley; remark: listed apart in the source
Rat [13] = assay: concentration in plasma after dosing; details: dosed: Perfluorooctane Sulfonate, 2 mg/kg, iv, Female, F344; remark: listed apart in the source
Rat [14] = assay: concentration in kidney after dosing; details: 1848 h; dosed: Perfluorooctane Sulfonate; 2 mg/kg; oral; Female; Harlan Sprague Dawley
Rat [15] = assay: concentration in brain after dosing; details: 1.5 h; dosed: 2-Methyltetrahydrofuran; 40 mg/kg; iv; Male; Harlan Sprague Dawley
Rat [16] = assay: concentration in brain after dosing; details: 2 h; dosed: 2-Methyltetrahydrofuran; 40 mg/kg; iv; Female; Harlan Sprague Dawley
Rat [17] = assay: concentration in brain after dosing; details: 2 min; dosed: 2-Methyltetrahydrofuran; 40 mg/kg; iv; Male; Harlan Sprague Dawley
Rat [18] = assay: concentration in plasma after dosing; details: 2 h; dosed: 2-Methyltetrahydrofuran; 40 mg/kg; iv; Male; Harlan Sprague Dawley
Rat [19] = assay: concentration in plasma after dosing; details: 7 min; dosed: 2-Methyltetrahydrofuran; 40 mg/kg; iv; Male; Harlan Sprague Dawley
Rat [20] = assay: concentration in plasma after dosing; details: 0.75 h; dosed: 2-Methyltetrahydrofuran; 40 mg/kg; iv; Male; Harlan Sprague Dawley
Rat [21] = assay: concentration in brain after dosing; details: 0.5 h; dosed: Perfluorohexanoic Acid; 80 mg/kg; oral; Female; Harlan Sprague Dawley
Rat [22] = assay: concentration in liver after dosing; details: 0.5 h; dosed: Perfluorohexanoic Acid; 80 mg/kg; oral; Male; Harlan Sprague Dawley
Rat [23] = assay: concentration in kidney after dosing; details: 3 h; dosed: Perfluorohexanoic Acid; 80 mg/kg; oral; Male; Harlan Sprague Dawley
Rat [24] = assay: concentration in plasma after dosing; details: 0.75 h; dosed: Perfluorohexanoic Acid; 80 mg/kg; oral; Male; Harlan Sprague Dawley
Rat [25] = assay: concentration in plasma after dosing; details: 1 h; dosed: Perfluorohexanoic Acid; 80 mg/kg; oral; Male; Harlan Sprague Dawley
Rat [26] = assay: concentration in plasma after dosing; details: 3 h; dosed: Perfluorohexanoic Acid; 80 mg/kg; oral; Male; Harlan Sprague Dawley

O=S(=O)([O-])C(F)(F)C(F)(F)C(F)(F)C(F)(F)C(F)(F)C(F)(F)C(F)(F)C(F)(F)F [Perfluorooctane Sulfonate]
Details	concentration in brain [ng/g]	concentration in kidney [ng/g]	concentration in liver [ng/g]
Rat [1]	–	–	29400
Rat [2]	851	–	–
Rat [3]	–	–	11100
Rat [4]	–	–	5680
Rat [5]	–	–	51700
Rat [6]	–	82400	–
Rat [14]	–	2040	–

Details	concentration in plasma [ng/mL]
Rat [7], 5 min	38.2
Rat [7], 12 h	7740
Rat [7], 1200 h	892
Rat [8], 1 h	4320
Rat [8], 192 h	3170
Rat [8], 2376 h	542
Rat [9], 6 h	4060
Rat [9], 528 h	1840
Rat [9], 3216 h	96.4
Rat [10], 5 min	5510
Rat [10], 24 h	4250
Rat [10], 1704 h	232
Rat [11], 12 h	4350
Rat [11], 864 h	995
Rat [11], 3216 h	99.5
Rat [12], 1 h	4460
Rat [12], 192 h	2800
Rat [12], 1704 h	848
Rat [13], 6 h	4910
Rat [13], 528 h	2900
Rat [13], 3216 h	277

CC1CCCO1 (stereo not given) [2-Methyltetrahydrofuran]
Details	concentration in brain [ng/mL]	concentration in plasma [ng/mL]
Rat [15]	2800	–
Rat [16]	3530	–
Rat [17]	34000	–
Rat [18]	–	13900
Rat [19]	–	48100
Rat [20]	–	31600

O=C(O)C(F)(F)C(F)(F)C(F)(F)C(F)(F)C(F)(F)F [Perfluorohexanoic Acid]
Details	concentration in brain [ng/g]	concentration in kidney [ng/g]	concentration in liver [ng/g]	concentration in plasma [ng/mL]
Rat [21]	943	–	–	–
Rat [22]	–	–	102000	–
Rat [23]	–	65000	–	–
Rat [24]	–	–	–	134000
Rat [25]	–	–	–	146000
Rat [26]	–	–	–	76100
